Measurements as given in US10195156B2, “Compounds and compositions for intracellular delivery of agents” (ModernaTX, Inc., priority 2015, dated 2019).
Entries after “also recorded” stand apart in the source; their conditions may differ.

Legend:
[1] = Particle size and polydispersity index of nanoparticle compositions (Zetasizer Nano ZS); format: physicochemical
In short: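 In 1×PBS, the compositions were sized on a Zetasizer Nano ZS, which also reported their polydispersity index.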

[2] = test system: luciferase (Luc) mRNA expression; test: Expression of Luc induced by sample formulations, whole-body bioluminescence after intravenous administration; format: in vivo
In short: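 Mice (n=6) dosed intravenously with Luc mRNA nanoparticle formulations at 0.5 mg/kg. Whole-body bioluminescence measured at 3, 6 and 24 h. Standard MC3 formulation and PBS control run alongside.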

[3] = test system: modified luciferase expression; test: Expression of Luc in different organs (liver, lung, spleen, femur) 6 hours after intravenous administration; format: in vivo; conditions: i.v., 0.5 mpk
Protocol: The efficacy of the nanoparticle compositions presented in Tables 1, 1a, 17-1, 19-1, 20-1 and 21-1 was further evaluated by measuring the expression of modified luciferase in the liver, lung, spleen, and femur upon administration of a given composition. Formulations were administered intravenously to mice (n=3) at a dosage of 0.5 mpk and bioluminescence measured after 6 hours. The standard MC3 formulation and a PBS control were also tested.

IL-6 = test: Cytokine production induced by sample formulations: IL-6; format: in vivo; conditions: mice, i.v., 0.5 mpk, 6 hours; for IL-6: in pg/mL (unit assumed)
In short: (§1)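 Mice received nanoparticle formulations intravenously at 0.5 mpk, with standard MC3 formulation and PBS as controls. Cytokine concentrations were measured 6 hours after dosing.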

IP-10 = test: Cytokine production induced by sample formulations: IP-10; format: in vivo; conditions: mice, i.v., 0.5 mpk, 6 hours; for IP-10: in pg/mL (unit assumed)
In short: as §1

hEPO mRNA expression [4] = test: Expression of hEPO in rats after intravenous administration; format: in vivo; conditions: for hEPO (pg/mL) 3 hours / hEPO (pg/mL) 6 hours / hEPO (pg/mL) 24 hours: Table 6, 0.2 mg/kg or 0.5 mg/kg; for Lipid/MC3 hEPO S.D. (rats): hEPO expression relative to MC3, S.D. rats, intravenous
Protocol: PBS (phosphate buffered saline) is used as control.
Formulations were prepared according to Table 5 and included mRNA encoding hEPO.
[…] After the 48 hour time point, livers and spleens were harvested and frozen.

hEPO mRNA expression [5] = test: Expression of hEPO in CD-1 mice; format: in vivo; conditions: for Lipid/MC3 hEPO CD-1 (mice): hEPO expression relative to MC3, CD-1 mice
Text: FIG. 12 is a set of graphs illustrating hEPO expression levels in CD-1 mice dosed with compounds of the disclosure, compared to MC3. PBS is used as control. […] In graphs A-C numbers 1-14 refer to compositions containing the following: 1: Compound 73, 2: Compound 80, 3: Compound 70; 4: Compound 81; 5: Compound 69; 6: Compound 82; 7: Compound 83; 8: Compound 62; 9: Compound 84; 10: Compound 85; 11: Compound 86; 12: Compound 87; 13: MC3; 14: PBS.
FIG. 13 is a graph showing hEPO levels (pg/mL) in CD-1 mice up to ˜25 h after administration of a nanoparticle composition containing compounds of the disclosure, compared to a composition containing MC3. Numbers 1-13 refer to compositions containing the following: 1: Compound 73, 2: Compound 80, 3: Compound 70; 4: Compound 81; 5: Compound 69; 6: Compound 82; 7: Compound 83; 8: Compound 62; 9: Compound 84; 10: Compound 85; 11: Compound 86; 12: Compound 87; 13: MC3. […]

[6] = Table 1, rows without footnote mark
[7] = Table 1, rows without footnote mark (lipid:DOPE:cholesterol:PEG-DMG 40:20:38.5:1.5, Luc mRNA; MC3 standard formulation)
[8] = Table 5, hEPO mRNA, 40:20:38.5:1.5 Lipid:DOPE:Chol:PEG-DMG
[9] = Table 2, mice, i.v., 0.5 mg/kg, 3 hours
[10] = Table 5, hEPO mRNA, 50:10:38.5:1.5 Lipid:DSPC:Chol:PEG-DMG
[11] = Table 20-1, rows without footnote mark
[12] = Table 17-2, mice, i.v., 0.5 mg/kg
[13] = Table 19-2, mice, i.v., 0.5 mg/kg
[14] = Table 20-2, mice, i.v., 0.5 mg/kg
[15] = Table 21-2, mice, i.v., 0.5 mg/kg

CCCCCCCCCCCCN(CCCCCCCCCCCC)CCN(CCCCCCCCCCCC)CCN1CCN(CCN(CCCCCCCCCCCC)CCCCCC(=O)OCCCCC)CC1 [Compound 12, Pentyl 6-((2-(4-(2-((2-(didodecylamino)ethyl)(dodecyl)amino)ethyl)piperazin-1-yl)ethyl)(dodecyl)amino)hexanoate]
PDI [1, 6]: 0.096 | Size (nm) [1, 7]: 87.8 nm | PDI [1, 8]: 0.13 | Size (nm) [1, 8]: 87.5 nm | Total Flux 3 hours [2, 9]: 1.06E+10 | Total Flux 6 hours ([2]; Table 2, mice, i.v., 0.5 mg/kg): 1.38E+10 | Total Flux 24 hours ([2]; Table 2, mice, i.v., 0.5 mg/kg): 6.03E+08 | Luc expression in mice compared with MC3 (in words) ([2]; Table 7a): significantly lower | Total Flux Liver ([3]; Table 3, mice, liver): 1.05E+09 | Total Flux Lung ([3]; Table 3, mice): 6.76E+06 | Total Flux Spleen ([3]; Table 3, mice): 1.11E+07 | IL-6 (IL-6; Table 4): 31 | IP-10 (IP-10; Table 4): 2382 | hEPO (pg/mL) 3 hours (hEPO mRNA expression [4]; rats, i.v.): 592260 pg/mL | hEPO (pg/mL) 6 hours (hEPO mRNA expression [4]; rats, i.v.): 424740 pg/mL | hEPO (pg/mL) 24 hours (hEPO mRNA expression [4]; rats, i.v.): 165404 pg/mL | Lipid/MC3 hEPO S.D. (rats) (hEPO mRNA expression [4]): 0.32 | hEPO expression in mice compared with MC3 (in words) (hEPO mRNA expression [5]; Table 7a, mice): substantially higher | Lipid/MC3 hEPO CD-1 (mice) (hEPO mRNA expression [5]): 2.3

CCCCCC=CCC=CCCCCCCCCC(CCCCCCCCC=CCC=CCCCCC)OC(=O)CCCN(C)C (stereo not shown) [MC3, heptatriaconta-6,9,28,31-tetraen-19-yl 4-(dimethylamino)butanoate, reference compound]
PDI [1, 6]: 0.117 | Size (nm) [1, 7]: 86.2 nm | PDI ([1]; Table 1b): 0.17 | Size (nm) ([1]; Table 1b): 74.7 nm | PDI [1, 10]: 0.11 | Size (nm) [1, 10]: 76.5 nm | PDI ([1]; Table 17-1): 0.138 | Size (nm) ([1]; Table 17-1): 83.8 nm | PDI ([1]; Table 19-1): 0.122 | Size (nm) ([1]; Table 19-1): 83.3 nm | PDI [1, 11]: 0.117 | Size (nm) [1, 11]: 84.0 nm | PDI ([1]; Table 21-1): 0.1191 | Size (nm) ([1]; Table 21-1): 91.4 nm | Total Flux 3 hours [2, 9]: 1.63E+10 | Total Flux 6 hours ([2]; Table 2, mice, i.v., 0.5 mg/kg): 1.73E+10 | Total Flux 24 hours ([2]; Table 2, mice, i.v., 0.5 mg/kg): 1.16E+09 | Total Flux 3 hours ([2]; Table 17-2, mice, i.v., 0.5 mg/kg, 3 hours): 1.63E+10 | Total Flux 6 hours [2, 12]: 2.13E+10 | Total Flux 24 hours [2, 12]: 1.01E+09 | Total Flux 3 hours ([2]; Table 19-2, mice, i.v., 0.5 mg/kg, 3 hours): 1.53E+10 | Total Flux 6 hours [2, 13]: 1.73E+10 | Total Flux 24 hours [2, 13]: 1.13E+09 | Total Flux 3 hours ([2]; Table 20-2, mice, i.v., 0.5 mg/kg, 3 hours): 1.73E+10 | Total Flux 6 hours [2, 14]: 1.94E+10 | Total Flux 24 hours [2, 14]: 8.48E+08 | Total Flux 3 hours ([2]; Table 21-2, mice, i.v., 0.5 mg/kg, 3 hours): 1.69E+10 | Total Flux 6 hours [2, 15]: 2.87E+10 | Total Flux 24 hours [2, 15]: 2.23E+10 | total flux after 3 hours, rank within the named table (in words) ([2]; mice, i.v., 0.5 mg/kg, 3 hours): highest after 3 hours | total flux / Luc expression, rank within the named table (in words) ([2]; mice, i.v., 0.5 mg/kg, each time point): highest total flux; also recorded: highest luciferase expression | Total Flux Femur ([3]; Table 3, mice): 3.08E+06 | Total Flux Liver ([3]; Table 3, mice, liver): 2.31E+09 | Total Flux Lung ([3]; Table 3, mice): 8.61E+06 | Total Flux Spleen ([3]; Table 3, mice): 1.95E+07 | Total Flux Femur ([3]; Table 17-3, mice): 6.03E+06 | Total Flux Liver ([3]; Table 17-3, mice, liver): 2.75E+09 | Total Flux Lung ([3]; Table 17-3, mice): 7.25E+06 | Total Flux Spleen ([3]; Table 17-3, mice): 2.62E+07 | Total Flux Liver ([3]; Table 19-3, mice, liver): 2.39E+09 | Total Flux Lung ([3]; Table 19-3, mice): 5.83E+06 | Total Flux Spleen ([3]; Table 19-3, mice): 2.45E+07 | Total Flux Femur ([3]; Table 20-3, mice): 2.60E+06 | Total Flux Liver ([3]; Table 20-3, mice, liver): 2.48E+09 | Total Flux Lung ([3]; Table 20-3, mice): 1.28E+07 | Total Flux Spleen ([3]; Table 20-3, mice): 2.85E+07 | Total Flux Liver ([3]; Table 21-3, mice, liver): 3.05E+09 | Total Flux Lung ([3]; Table 21-3, mice): 6.60E+06 | Total Flux Spleen ([3]; Table 21-3, mice): 4.73E+07 | total flux in organs, rank or organ comparison (in words) ([3]; mice, each organ or overall, 0.5 mg/kg): highest total flux; also recorded: highest expression in each organ | total flux in the liver, rank within the named table (in words) ([3]; mice, liver): highest | IL-6 (IL-6; Table 4): 92 | IL-6 (IL-6; Table 17-4): 107 | IL-6 (IL-6; Table 19-4): 65.7 | IL-6 (IL-6; Table 20-4, formula (20-I)): 119.5 | IL-6 induction, rank within the named table (in words) (IL-6): highest IL-6 and IP-10 levels | IP-10 (IP-10; Table 4): 438 | IP-10 (IP-10; Table 17-4): 500 | IP-10 (IP-10; Table 19-4): 323.9 | IP-10 (IP-10; Table 20-4, formula (20-I)): 499.1 | IP-10 induction, rank or comparison with IL-6 (in words) (IP-10): highest IL-6 and IP-10 levels | hEPO (pg/mL) 3 hours (hEPO mRNA expression [4]; rats, i.v.): 1407947 pg/mL | hEPO (pg/mL) 6 hours (hEPO mRNA expression [4]; rats, i.v.): 1036013 pg/mL | hEPO (pg/mL) 24 hours (hEPO mRNA expression [4]; rats, i.v.): 436243 pg/mL | AUC (0.1 mpk) (hEPO mRNA expression [4]; hEPO expression in S.D. rats, 0.1 mpk): 1.62E+06 | AUC (1 mpk) (hEPO mRNA expression [4]; hEPO expression in S.D. rats, 1 mpk): 1.17E+08 | Lipid/MC3 hEPO S.D. (rats) (hEPO mRNA expression [4]): 1 | hEPO expression in rats, comparison (in words) (hEPO mRNA expression [4]; rats, i.v., 0.2 or 0.5 mg/kg, Tables 6, 7a): highest hEPO expression at each time point | Lipid/MC3 hEPO CD-1 (mice) (hEPO mRNA expression [5]): 1
